Laboratory results reported in article PMC10935061 (Acta Pharmaceutica Sinica. B, 2023).
pKd: −log10 of the molar value.

Molecular target: Nur77 (Homo sapiens, UniProt P22736)
Assay: SPR
Format: binding

Nur77, sequence (P22736 360-598 limits assumed): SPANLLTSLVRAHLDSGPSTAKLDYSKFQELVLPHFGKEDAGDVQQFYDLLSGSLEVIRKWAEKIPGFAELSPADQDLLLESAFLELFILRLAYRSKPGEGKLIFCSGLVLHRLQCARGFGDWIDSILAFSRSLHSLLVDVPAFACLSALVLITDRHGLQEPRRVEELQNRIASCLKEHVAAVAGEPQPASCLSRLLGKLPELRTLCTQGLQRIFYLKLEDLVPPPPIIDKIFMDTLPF

pKd: 6.42
Structure (SMILES): CCCCCCCC(=O)c1cc(OC)c(OC)c(OC)c1CC(=O)OCC [TMPA]
